Assay results reported in article PMC12814486 (Bioorganic & medicinal chemistry, 2025).
Values after ≈ are worked out from the molar mass of the structure shown.

Experiments:
human FAAH = target: T1, human FAAH (Homo sapiens, UniProt O00519); test: FAAH inhibition assay; format: biochemical
T1 sequence (O00519 1-579): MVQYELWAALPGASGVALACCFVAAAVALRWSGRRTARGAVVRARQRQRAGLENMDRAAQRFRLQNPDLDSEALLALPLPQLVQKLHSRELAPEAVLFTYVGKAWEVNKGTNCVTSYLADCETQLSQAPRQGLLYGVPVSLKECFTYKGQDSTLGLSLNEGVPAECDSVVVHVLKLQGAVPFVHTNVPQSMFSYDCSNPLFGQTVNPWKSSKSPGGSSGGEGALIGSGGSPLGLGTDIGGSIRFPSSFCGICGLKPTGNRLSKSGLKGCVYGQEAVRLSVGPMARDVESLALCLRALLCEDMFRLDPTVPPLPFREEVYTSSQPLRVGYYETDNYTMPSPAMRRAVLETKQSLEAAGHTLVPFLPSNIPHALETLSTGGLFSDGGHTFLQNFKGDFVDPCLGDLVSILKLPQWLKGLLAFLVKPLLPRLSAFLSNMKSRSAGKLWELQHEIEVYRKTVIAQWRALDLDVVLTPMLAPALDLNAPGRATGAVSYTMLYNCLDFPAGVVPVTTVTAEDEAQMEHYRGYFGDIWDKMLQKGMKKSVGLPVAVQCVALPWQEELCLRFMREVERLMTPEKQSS

mouse sEH = target: T2, mouse sEH (Mus musculus, UniProt P34914); test: sEH inhibition assay; format: biochemical
T2 sequence (P34914 1-554): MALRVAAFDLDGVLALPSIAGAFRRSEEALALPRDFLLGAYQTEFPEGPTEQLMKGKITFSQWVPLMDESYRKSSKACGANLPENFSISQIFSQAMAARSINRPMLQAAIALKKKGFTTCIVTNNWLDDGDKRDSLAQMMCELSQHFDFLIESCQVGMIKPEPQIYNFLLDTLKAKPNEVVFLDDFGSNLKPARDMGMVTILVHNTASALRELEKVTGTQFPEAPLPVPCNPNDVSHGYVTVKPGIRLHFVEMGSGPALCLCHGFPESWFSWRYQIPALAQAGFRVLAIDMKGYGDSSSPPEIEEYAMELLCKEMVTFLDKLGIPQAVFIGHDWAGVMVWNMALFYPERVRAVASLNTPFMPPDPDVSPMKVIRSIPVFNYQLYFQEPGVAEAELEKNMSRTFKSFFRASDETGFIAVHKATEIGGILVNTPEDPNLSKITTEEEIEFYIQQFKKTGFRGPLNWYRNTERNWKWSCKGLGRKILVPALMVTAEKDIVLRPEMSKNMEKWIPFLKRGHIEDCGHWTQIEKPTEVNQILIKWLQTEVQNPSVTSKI

rat sEH = target: T3, rat sEH (Rattus norvegicus, UniProt P80299); test: sEH inhibition assay; format: biochemical
T3 sequence (P80299 1-554): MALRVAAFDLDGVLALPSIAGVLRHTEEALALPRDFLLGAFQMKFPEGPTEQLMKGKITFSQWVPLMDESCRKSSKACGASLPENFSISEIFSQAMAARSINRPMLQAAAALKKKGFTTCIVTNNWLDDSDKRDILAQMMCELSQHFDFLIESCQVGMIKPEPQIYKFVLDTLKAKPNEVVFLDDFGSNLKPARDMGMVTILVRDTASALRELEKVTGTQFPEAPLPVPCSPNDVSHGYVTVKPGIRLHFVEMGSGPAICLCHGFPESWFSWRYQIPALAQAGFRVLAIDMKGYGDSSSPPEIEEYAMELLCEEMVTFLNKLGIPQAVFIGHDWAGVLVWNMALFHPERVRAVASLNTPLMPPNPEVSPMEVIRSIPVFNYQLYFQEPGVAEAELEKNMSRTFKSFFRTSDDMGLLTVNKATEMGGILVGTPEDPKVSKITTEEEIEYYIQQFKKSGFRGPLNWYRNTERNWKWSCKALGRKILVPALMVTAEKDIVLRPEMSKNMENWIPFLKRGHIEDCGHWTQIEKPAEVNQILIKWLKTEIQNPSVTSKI

Solubility assay = format: physicochemical; conditions: sodium phosphate buffer, pH 7.4, aqueous buffer, kinetic from dmso stock
human sEH = target: T4, human sEH (Homo sapiens, UniProt P34913); test: sEH inhibition assay; format: biochemical
T4 sequence (P34913 1-555): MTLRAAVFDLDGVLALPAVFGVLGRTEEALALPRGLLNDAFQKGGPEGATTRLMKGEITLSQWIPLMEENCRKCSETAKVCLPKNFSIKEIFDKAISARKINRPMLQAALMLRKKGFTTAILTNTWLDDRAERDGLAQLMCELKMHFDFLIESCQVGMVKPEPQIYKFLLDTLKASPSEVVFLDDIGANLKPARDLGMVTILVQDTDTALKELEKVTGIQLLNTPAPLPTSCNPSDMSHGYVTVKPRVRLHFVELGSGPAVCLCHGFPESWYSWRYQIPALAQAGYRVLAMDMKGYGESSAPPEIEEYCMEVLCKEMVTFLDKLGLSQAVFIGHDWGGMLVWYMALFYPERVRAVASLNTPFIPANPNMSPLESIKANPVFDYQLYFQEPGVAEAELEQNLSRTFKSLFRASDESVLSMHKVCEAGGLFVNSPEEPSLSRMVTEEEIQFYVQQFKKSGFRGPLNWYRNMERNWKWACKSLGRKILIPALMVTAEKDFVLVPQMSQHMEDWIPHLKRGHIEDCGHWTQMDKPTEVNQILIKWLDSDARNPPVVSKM

male Sprague-Dawley rats = test: Home cage wheel running; format: in vivo, rat; conditions: 3 mg/kg intraperitoneal, vs vehicle, n = 8/group

Row | SMILES | IC50 (human FAAH) [nM] | IC50 (mouse sEH) [nM] | IC50 (rat sEH) [nM] | solubility (Solubility assay) [µM] | IC50 (human sEH) [nM] | wheel revolutions in the 15 min after drug injection (male Sprague-Dawley rats)
1 | O=C(Nc1ccc(-c2cnc(F)nc2)cc1)C1CCN(S(=O)(=O)c2ccccc2Cl)CC1 [Compound 4g, 1-((2-chlorophenyl)sulfonyl)-N-(4-(2-fluoropyrimidin-5-yl)phenyl)piperidine-4-carboxamide] | 175 | 161 | 43.7 | 31 to 63 (≈ 14.7 to 29.9 µg/mL) | 27.2 | 
2 | O=C(Nc1ccc(-c2cnc(C(F)(F)F)nc2)cc1)C1CCN(S(=O)(=O)c2ccccc2Cl)CC1 [Compound 4k, 1-((2-chlorophenyl)sulfonyl)-N-(4-(2-(trifluoromethyl)pyrimidin-5-yl)phenyl)piperidine-4-carboxamide] | 327 | 1130 | 134 | 31 to 63 (≈ 16.3 to 33.1 µg/mL) | 94.6 | 
3 | COc1ncc(-c2ccc(NC(=O)C3CCN(S(=O)(=O)c4ccccc4Cl)CC3)cc2)cn1 [Compound 4j, 1-((2-chlorophenyl)sulfonyl)-N-(4-(2-methoxypyrimidin-5-yl)phenyl)piperidine-4-carboxamide] | 462 | 379 | 17.9 | 31 to 63 (≈ 15.1 to 30.7 µg/mL) | 7.7 | 
4 | O=C(Nc1ccc(-c2ncc(F)cn2)cc1)C1CCN(S(=O)(=O)c2ccccc2Cl)CC1 [Compound 4c, 1-((2-chlorophenyl)sulfonyl)-N-(4-(5-fluoropyrimidin-2-yl)phenyl)piperidine-4-carboxamide] | 290 | 82.5 | 47.7 | 31 to 63 (≈ 14.7 to 29.9 µg/mL) | 23.4 | 
5 | CN1CC[C@]23c4c5ccc(O)c4O[C@H]2[C@@H](O)C=C[C@H]3[C@H]1C5 [morphine, reference compound] |  |  |  |  |  | significantly lower
6 | O=C(Nc1ccc(-c2ncc(Cl)cn2)cc1)C1CCN(S(=O)(=O)c2ccccc2Cl)CC1 [Compound 4d, 1-((2-chlorophenyl)sulfonyl)-N-(4-(5-chloropyrimidin-2-yl)phenyl)piperidine-4-carboxamide] | 460 | 89 | 82.3 | 31 to 63 (≈ 15.2 to 31 µg/mL) | 89.4 | 
7 | O=C(Nc1ccc(-c2nnnn2C2CC2)cc1)C1CCN(S(=O)(=O)c2ccccc2Cl)CC1 [Compound 4o, 1-((2-chlorophenyl)sulfonyl)-N-(4-(1-cyclopropyl-1H-tetrazol-5-yl)phenyl)piperidine-4-carboxamide] | > 10000 | 12.5 | 29.6 | 31 to 63 (≈ 15.1 to 30.7 µg/mL) | 22 | 
8 | Cc1ncc(-c2ccc(NC(=O)C3CCN(S(=O)(=O)c4ccccc4Cl)CC3)cc2)cn1 [Compound 4i, 1-((2-chlorophenyl)sulfonyl)-N-(4-(2-methylpyrimidin-5-yl)phenyl)piperidine-4-carboxamide] | 1240 | 214 | 12.1 | 31 to 63 (≈ 14.6 to 29.7 µg/mL) | 5.6 | 
9 | COc1cnc(-n2nnnc2-c2ccc(NC(=O)C3CCN(S(=O)(=O)c4ccccc4Cl)CC3)cc2)c(OC)n1 [Compound 4q, 1-((2-chlorophenyl)sulfonyl)-N-(4-(1-(3,5-dimethoxypyrazin-2-yl)-1H-tetrazol-5-yl)phenyl)piperidine-4-carboxamide] | > 10000 | 264 | 305 | 31 to 63 (≈ 18.1 to 36.9 µg/mL) | 213 | 
10 | O=C(Nc1ccc(-c2cncnc2)cc1)C1CCN(S(=O)(=O)c2ccccc2Cl)CC1 [Compound 4b, 1-((2-chlorophenyl)sulfonyl)-N-(4-(pyrimidin-5-yl)phenyl)piperidine-4-carboxamide] | 196 | 904 | 4.9 | > 63 | 5.6 | 
11 | Cc1cnc(-c2ccc(NC(=O)C3CCN(S(=O)(=O)c4ccccc4Cl)CC3)cc2)nc1 [Compound 4e, 1-((2-chlorophenyl)sulfonyl)-N-(4-(5-methylpyrimidin-2-yl)phenyl)piperidine-4-carboxamide] | 308 | 79.8 | 73.9 | 31 to 63 (≈ 14.6 to 29.7 µg/mL) | 73.6 | 
12 | O=C(Nc1ccc(-c2cnc(Cl)nc2Cl)cc1)C1CCN(S(=O)(=O)c2ccccc2Cl)CC1 [Compound 4l, 1-((2-chlorophenyl)sulfonyl)-N-(4-(2,4-dichloropyrimidin-5-yl)phenyl)piperidine-4-carboxamide] | 2000 | 40.4 | 15.4 | 31 to 63 (≈ 16.3 to 33.1 µg/mL) | 78.8 | 
13 | COc1cnc(-c2ccc(NC(=O)C3CCN(S(=O)(=O)c4ccccc4Cl)CC3)cc2)nc1 [Compound 4f, 1-((2-chlorophenyl)sulfonyl)-N-(4-(5-methoxypyrimidin-2-yl)phenyl)piperidine-4-carboxamide] | 181 | 32.4 | 55.9 | 31 to 63 (≈ 15.1 to 30.7 µg/mL) | 26.3 | 
14 | O=C(Nc1ccc(-c2nnnn2Cc2ccccc2)cc1)C1CCN(S(=O)(=O)c2ccccc2Cl)CC1 [Compound 4p, N-(4-(1-benzyl-1H-tetrazol-5-yl)phenyl)-1-((2-chlorophenyl)sulfonyl)piperidine-4-carboxamide] | > 10000 | 106 | 25.5 | 31 to 63 (≈ 16.6 to 33.8 µg/mL) | 9.8 | 
15 | O=C(Nc1ccc(-c2nnn[nH]2)cc1)C1CCN(S(=O)(=O)c2ccccc2Cl)CC1 [Compound 4n, N-(4-(1H-tetrazol-5-yl)phenyl)-1-((2-chlorophenyl)sulfonyl)piperidine-4-carboxamide] | > 10000 | 202 | 83.4 | 31 to 63 (≈ 13.9 to 28.2 µg/mL) | 232 | 
16 | O=C(Nc1ccc(-c2cnc(Cl)nc2)cc1)C1CCN(S(=O)(=O)c2ccccc2Cl)CC1 [Compound 4h, 1-((2-chlorophenyl)sulfonyl)-N-(4-(2-chloropyrimidin-5-yl)phenyl)piperidine-4-carboxamide] | 258 | 510 | 71.5 | 31 to 63 (≈ 15.2 to 31 µg/mL) | 32.6 | 
17 | NC(=O)c1cccc(-c2cccc(OC(=O)NC3CCCCC3)c2)c1 [URB597, reference compound] |  |  |  | > 63 |  | 
18 | O=C(Nc1ccc(-c2ncccn2)cc1)C1CCN(S(=O)(=O)c2ccccc2Cl)CC1 [Compound 4a, 1-((2-chlorophenyl)sulfonyl)-N-(4-(pyrimidin-2-yl)phenyl)piperidine-4-carboxamide] | 175 | 342 | 18.1 | > 63 | 19.7 | 
